Structures are written as SMILES.

A short description of the experiment: Effect on rate of GTP hydrolysis in the GTP binding protein ras p21.
For the molecule `CNC[C@H](N)C(=O)O`, the krel came out at 1.
`CC(C)[C@H](N)C(=O)O` came in with a krel of 1.02.
Turning to `C[C@H](N)C(=O)O`, the krel stood at 1.04.
As for `CCC[C@H](N)C(=O)O`, the figure is 0.98.

For the origin of these results see ChEMBL document CHEMBL1130808, “Prediction of the GTPase activities by using the semiempirical molecular orbital theory” (Bioorg Med Chem Lett, 1998).
